# Legend:
# Format in all cases: in vivo
# [1] = test system: Alfalfa; experiment: Greenhouse Test 1: weed control by 2,4-D with surfactants
# Source text: In a first series of Examples, the following compounds are utilized to evaluate the efficacy of various herbicides in combination with various surfactants against two types of weeds: • Herbicides: […]; dicamba; and glufosinate • Surfactants: Glycerol Monosoyate+10EO; • Glycerol Monosoyate+15EO; • Glycerol Monosoyate+20EO; • Glycerol Monosoyate+30EO; • Glycerol Monosoyate+50EO; • Soybean oil+20EO; • Reference 1—Polyoxyethylene (20) sorbitan monolaurate • Reference 2—Sodium lauryl ether sulfate The following test protocol is used:
# (§1) Data is collected at end of each week for 4 weeks.
# [2] = test system: Alfalfa; experiment: Greenhouse Test 1: weed control by dicamba with surfactants
# Source text: (§2) In a first series of Examples, the following compounds are utilized to evaluate the efficacy of various herbicides in combination with various surfactants against two types of weeds: • Herbicides: 2,4-D ester; dicamba; and glufosinate • Surfactants: Glycerol Monosoyate+10EO; • Glycerol Monosoyate+15EO; • Glycerol Monosoyate+20EO; • Glycerol Monosoyate+30EO; • Glycerol Monosoyate+50EO; • Soybean oil+20EO; • Reference 1—Polyoxyethylene (20) sorbitan monolaurate • Reference 2—Sodium lauryl ether sulfate The following test protocol is used:
# as §1
# [3] = test system: Morning glory; experiment: Greenhouse Test 1: weed control by glufosinate with surfactants
# Source text: as §2, §1
# [4] = test system: Anthracnose (Colletotrichum gloeosporioides); experiment: Greenhouse Test 2: Thiophenate methyl 70% WP with surfactants against anthracnose of grapes; details: Table C, summary in words
# Source text: (§3) In a second series of Examples, the following compounds are utilized to evaluate the efficacy of various fungicides in combination with various surfactants against fungi: • Fungicides: Hexaconazole 5% EC; Dimethomorph 50WP; Thiophenate methyl 70% WP; Azoxystrobin 23 SC • Surfactants: • Dioctyl sulfosuccinate • Alkoxylated glyceride with 20EO; • Alkoxylated glyceride with 50EO; • Siloxane Polyalkyleneoxide Copolymer • Fungi: • Powdery mildew (Erysiphenecator); • Downy mildew (Plasmopara viticola); • Anthracnose (Colletotrichum gloeosporioides); and • Early blight (Alternariasolani). The following test protocol is used:
# (§4) There are 4 different fungicide formulations tested against 4 different pests (fungi). For each test there are untreated control (#1) and fungicide only w/o surfactant (#2). The same general protocol described above was used.
# Percent Disease Index (PDI) for powdery mildew, downy mildew, anthracnose and early blight diseases were calculated by following formulae: […]
# In case of grapes ratings on minimum ten leaves and a bunch were recorded on randomly selected canes. Ten such canes per plant were observed. The observations on 8 plants spread over four replication were recorded. Thus, the data presented on PDI is average of randomly selected 80 canes.
# [5] = test system: fungi; experiment: Greenhouse Test 2: overall comparison over the 4 fungicide formulations and 4 fungi; details: all 4 fungicide formulations; summary in words
# Source text: as §3, §4
# [6] = Table 1A: 2,4-D DMA 91 g ae/A, surfactant 0.1%
# [7] = Table 1B: 2,4-D DMA 91 g ae/A, surfactant 0.25%
# [8] = Table 1C: 2,4-D DMA 91 g ae/A, surfactant 0.25% (so in the source)
# [9] = Table 1D: 2,4-D DMA 91 g ae/A (so in the source), surfactant 0.25%
# [10] = Table 2A: Dicamba 23 g ae/A, surfactant 0.1%
# [11] = Table 2B: Dicamba 23 g ae/A, surfactant 0.25%
# [12] = Table 2C: Dicamba 45 g ae/A, surfactant 0.1%
# [13] = Table 2D: Dicamba 45 g ae/A, surfactant 0.25%
# [14] = Table 3A: Glufosinate 3 oz/a, surfactant 0.25%
# [15] = Table 3B: Glufosinate 3 oz/a, surfactant 0.5%
# [16] = Table 3C: Glufosinate 6 oz/a, surfactant 0.25%
# [17] = Table 3D: Glufosinate 6 oz/a, surfactant 0.50%
compound,measurement,setting,value
"CNC.O=C(O)COc1ccc(Cl)cc1Cl [2,4-D DMA]","% weed control, 7 day",[1]; [6],0.0%
same,"% weed control, 14 day",[1]; [6],0.0%
same,"% weed control, 21 day",[1]; [6],27.5%
same,"% weed control, 28 day",[1]; [6],32.5%
same,"% weed control, 7 day",[1]; [7],0.0%
same,"% weed control, 14 day",[1]; [7],0.0%
same,"% weed control, 21 day",[1]; [7],27.5%
same,"% weed control, 28 day",[1]; [7],32.5%
same,"% weed control, 7 day",[1]; [8],0.0%
same,"% weed control, 14 day",[1]; [8],7.5%
same,"% weed control, 21 day",[1]; [8],57.5%
same,"% weed control, 28 day",[1]; [8],57.5%
same,"% weed control, 7 day",[1]; [9],0.0%
same,"% weed control, 14 day",[1]; [9],7.5%
same,"% weed control, 21 day",[1]; [9],57.5%
same,"% weed control, 28 day",[1]; [9],57.5%
COc1c(Cl)ccc(Cl)c1C(=O)O [Dicamba],"% weed control, 7 day",[2]; [10],0.0%
same,"% weed control, 14 day",[2]; [10],20.0%
same,"% weed control, 21 day",[2]; [10],20.0%
same,"% weed control, 28 day",[2]; [10],12.5%
same,"% weed control, 7 day",[2]; [11],0.0%
same,"% weed control, 14 day",[2]; [11],20.0%
same,"% weed control, 21 day",[2]; [11],20.0%
same,"% weed control, 28 day",[2]; [11],12.5%
same,"% weed control, 7 day",[2]; [12],0.0%
same,"% weed control, 14 day",[2]; [12],50.0%
same,"% weed control, 21 day",[2]; [12],75.0%
same,"% weed control, 28 day",[2]; [12],55.0%
same,"% weed control, 7 day",[2]; [13],0.0%
same,"% weed control, 14 day",[2]; [13],50.0%
same,"% weed control, 21 day",[2]; [13],75.0%
same,"% weed control, 28 day",[2]; [13],55.0%
CP(=O)(O)CCC(N)C(=O)O (centres unmarked) [Glufosinate],"% weed control, 7 day",[3]; [14],0.0%
same,"% weed control, 14 day",[3]; [14],40.0%
same,"% weed control, 21 day",[3]; [14],25.0%
same,"% weed control, 28 day",[3]; [14],12.5%
same,"% weed control, 7 day",[3]; [15],0.0%
same,"% weed control, 14 day",[3]; [15],40.0%
same,"% weed control, 21 day",[3]; [15],25.0%
same,"% weed control, 28 day",[3]; [15],12.5%
same,"% weed control, 7 day",[3]; [16],0.0%
same,"% weed control, 14 day",[3]; [16],55.0%
same,"% weed control, 21 day",[3]; [16],40.0%
same,"% weed control, 28 day",[3]; [16],27.5%
same,"% weed control, 7 day",[3]; [17],0.0%
same,"% weed control, 14 day",[3]; [17],55.0%
same,"% weed control, 21 day",[3]; [17],40.0%
same,"% weed control, 28 day",[3]; [17],27.5%
"CCCCCCCCOC(=O)CC(C(=O)OCCCCCCCC)S(=O)(=O)O (centres unmarked) [dioctyl sulfosuccinate, Dioctyl sulfosuccinate]",efficacy compared with alkoxylated glyceride with 20EO,[4],lack of efficacy as compared to the alkoxylated glyceride with 20EO
same,overall disease control with fungicides,[5],overall good control in all cases
Polyoxyethylene (20) sorbitan monolaurate,"% weed control, 7 day",[3]; [14],85.0%
same,"% weed control, 14 day",[3]; [14],80.0%
same,"% weed control, 21 day",[3]; [14],58.8%
same,"% weed control, 28 day",[3]; [14],56.3%
same,"% weed control, 7 day",[3]; [15],91.3%
same,"% weed control, 14 day",[3]; [15],92.0%
same,"% weed control, 21 day",[3]; [15],85.0%
same,"% weed control, 28 day",[3]; [15],82.5%
same,"% weed control, 7 day",[3]; [16],91.3%
same,"% weed control, 14 day",[3]; [16],91.3%
same,"% weed control, 21 day",[3]; [16],82.5%
same,"% weed control, 28 day",[3]; [16],81.3%
same,"% weed control, 7 day",[3]; [17],91.3%
same,"% weed control, 14 day",[3]; [17],93.8%
same,"% weed control, 21 day",[3]; [17],94.5%
same,"% weed control, 28 day",[3]; [17],95.8%
same,"% weed control, 7 day",[2]; [10],62.5%
same,"% weed control, 14 day",[2]; [10],73.8%
same,"% weed control, 21 day",[2]; [10],50.0%
same,"% weed control, 28 day",[2]; [10],62.5%
same,"% weed control, 7 day",[2]; [11],60.0%
same,"% weed control, 14 day",[2]; [11],70.0%
same,"% weed control, 21 day",[2]; [11],50.0%
same,"% weed control, 28 day",[2]; [11],50.0%
same,"% weed control, 7 day",[2]; [12],77.5%
same,"% weed control, 14 day",[2]; [12],87.5%
same,"% weed control, 21 day",[2]; [12],76.3%
same,"% weed control, 28 day",[2]; [12],81.3%
same,"% weed control, 7 day",[2]; [13],70.0%
same,"% weed control, 14 day",[2]; [13],83.8%
same,"% weed control, 21 day",[2]; [13],75.0%
same,"% weed control, 28 day",[2]; [13],78.8%
same,"% weed control, 7 day",[1]; [6],67.5%
same,"% weed control, 14 day",[1]; [6],83.8%
same,"% weed control, 21 day",[1]; [6],70.0%
same,"% weed control, 28 day",[1]; [6],72.5%
same,"% weed control, 7 day",[1]; [7],67.5%
same,"% weed control, 14 day",[1]; [7],81.3%
same,"% weed control, 21 day",[1]; [7],67.5%
same,"% weed control, 28 day",[1]; [7],72.5%
same,"% weed control, 7 day",[1]; [8],72.5%
same,"% weed control, 14 day",[1]; [8],86.3%
same,"% weed control, 21 day",[1]; [8],80.0%
same,"% weed control, 28 day",[1]; [8],85.0%
same,"% weed control, 7 day",[1]; [9],72.5%
same,"% weed control, 14 day",[1]; [9],82.5%
same,"% weed control, 21 day",[1]; [9],76.3%
same,"% weed control, 28 day",[1]; [9],81.3%
Sodium lauryl ether sulfate,"% weed control, 7 day",[3]; [14],85.0%
same,"% weed control, 14 day",[3]; [14],75.0%
same,"% weed control, 21 day",[3]; [14],55.0%
same,"% weed control, 28 day",[3]; [14],55.0%
same,"% weed control, 7 day",[3]; [15],87.5%
same,"% weed control, 14 day",[3]; [15],90.0%
same,"% weed control, 21 day",[3]; [15],87.5%
same,"% weed control, 28 day",[3]; [15],77.5%
same,"% weed control, 7 day",[3]; [16],92.5%
same,"% weed control, 14 day",[3]; [16],95.8%
same,"% weed control, 21 day",[3]; [16],95.8%
same,"% weed control, 28 day",[3]; [16],96.5%
same,"% weed control, 7 day",[3]; [17],90.0%
same,"% weed control, 14 day",[3]; [17],88.8%
same,"% weed control, 21 day",[3]; [17],91.3%
same,"% weed control, 28 day",[3]; [17],89.5%
same,"% weed control, 7 day",[2]; [10],72.5%
same,"% weed control, 14 day",[2]; [10],81.3%
same,"% weed control, 21 day",[2]; [10],71.3%
same,"% weed control, 28 day",[2]; [10],70.0%
same,"% weed control, 7 day",[2]; [11],65.0%
same,"% weed control, 14 day",[2]; [11],80.0%
same,"% weed control, 21 day",[2]; [11],67.5%
same,"% weed control, 28 day",[2]; [11],70.0%
same,"% weed control, 7 day",[2]; [12],72.5%
same,"% weed control, 14 day",[2]; [12],82.5%
same,"% weed control, 21 day",[2]; [12],76.3%
same,"% weed control, 28 day",[2]; [12],76.3%
same,"% weed control, 7 day",[2]; [13],67.5%
same,"% weed control, 14 day",[2]; [13],82.5%
same,"% weed control, 21 day",[2]; [13],75.0%
same,"% weed control, 28 day",[2]; [13],75.0%
same,"% weed control, 7 day",[1]; [6],67.5%
same,"% weed control, 14 day",[1]; [6],83.8%
same,"% weed control, 21 day",[1]; [6],73.8%
same,"% weed control, 28 day",[1]; [6],75.0%
same,"% weed control, 7 day",[1]; [7],67.5%
same,"% weed control, 14 day",[1]; [7],82.5%
same,"% weed control, 21 day",[1]; [7],72.5%
same,"% weed control, 28 day",[1]; [7],67.5%
same,"% weed control, 7 day",[1]; [8],72.5%
same,"% weed control, 14 day",[1]; [8],86.3%
same,"% weed control, 21 day",[1]; [8],86.3%
same,"% weed control, 28 day",[1]; [8],87.5%
same,"% weed control, 7 day",[1]; [9],75.0%
same,"% weed control, 14 day",[1]; [9],85.0%
same,"% weed control, 21 day",[1]; [9],82.5%
same,"% weed control, 28 day",[1]; [9],83.8%

# — patent US20240215573A1, “LIQUID AGROCHEMICAL COMPOSITION” (NOURYON CHEMICALS INTERNATIONAL B.V., priority 2020, published 2024)
